Values quoted from earlier work in patent publication EP1269978A2, “Use of bis-resorcinyltriazine derivatives in cosmetic or dermatological preparations” (Beiersdorf AG, priority 2001, dated 2003).

Details: n-Octanol / Wasser

CC1=C(/C=C/C(C)=C/C=C/C(C)=C/CO)C(C)(C)CCC1 [Retinol]
log P-Wert: ~7
